{"source": "patent US8344028B2", "about": "“Gamma-amino-butyric acid derivatives as GABAB receptor ligands” (XenoPort, Inc., priority 2009, dated 2013)", "target": "GABAB receptor (Homo sapiens, UniProt Q9UBS5)", "sequence (Q9UBS5 20-961)": "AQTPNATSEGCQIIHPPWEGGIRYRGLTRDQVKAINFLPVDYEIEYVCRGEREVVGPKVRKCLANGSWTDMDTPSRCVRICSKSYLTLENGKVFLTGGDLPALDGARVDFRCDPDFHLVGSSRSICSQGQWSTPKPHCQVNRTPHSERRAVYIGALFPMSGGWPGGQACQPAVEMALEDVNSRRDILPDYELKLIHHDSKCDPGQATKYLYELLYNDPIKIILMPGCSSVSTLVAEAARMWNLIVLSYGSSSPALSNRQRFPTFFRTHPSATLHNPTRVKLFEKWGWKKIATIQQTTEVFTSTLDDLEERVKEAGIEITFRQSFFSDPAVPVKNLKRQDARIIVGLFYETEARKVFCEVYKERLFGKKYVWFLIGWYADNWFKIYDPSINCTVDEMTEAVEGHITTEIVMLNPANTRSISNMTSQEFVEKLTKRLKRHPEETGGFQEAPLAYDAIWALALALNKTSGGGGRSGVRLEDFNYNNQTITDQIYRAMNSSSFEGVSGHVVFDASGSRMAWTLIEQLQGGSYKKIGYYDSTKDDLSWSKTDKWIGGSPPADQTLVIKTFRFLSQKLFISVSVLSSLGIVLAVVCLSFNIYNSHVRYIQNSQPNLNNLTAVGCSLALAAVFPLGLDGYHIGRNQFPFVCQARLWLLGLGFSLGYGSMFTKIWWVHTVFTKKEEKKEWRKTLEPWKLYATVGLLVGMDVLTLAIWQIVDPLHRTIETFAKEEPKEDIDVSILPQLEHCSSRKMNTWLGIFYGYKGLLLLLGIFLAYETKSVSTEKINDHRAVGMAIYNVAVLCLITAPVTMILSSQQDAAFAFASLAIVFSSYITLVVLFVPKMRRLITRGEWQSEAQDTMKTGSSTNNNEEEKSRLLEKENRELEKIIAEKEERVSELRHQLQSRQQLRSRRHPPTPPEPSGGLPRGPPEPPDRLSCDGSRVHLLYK", "sequence (O75899 42-941 partner)": "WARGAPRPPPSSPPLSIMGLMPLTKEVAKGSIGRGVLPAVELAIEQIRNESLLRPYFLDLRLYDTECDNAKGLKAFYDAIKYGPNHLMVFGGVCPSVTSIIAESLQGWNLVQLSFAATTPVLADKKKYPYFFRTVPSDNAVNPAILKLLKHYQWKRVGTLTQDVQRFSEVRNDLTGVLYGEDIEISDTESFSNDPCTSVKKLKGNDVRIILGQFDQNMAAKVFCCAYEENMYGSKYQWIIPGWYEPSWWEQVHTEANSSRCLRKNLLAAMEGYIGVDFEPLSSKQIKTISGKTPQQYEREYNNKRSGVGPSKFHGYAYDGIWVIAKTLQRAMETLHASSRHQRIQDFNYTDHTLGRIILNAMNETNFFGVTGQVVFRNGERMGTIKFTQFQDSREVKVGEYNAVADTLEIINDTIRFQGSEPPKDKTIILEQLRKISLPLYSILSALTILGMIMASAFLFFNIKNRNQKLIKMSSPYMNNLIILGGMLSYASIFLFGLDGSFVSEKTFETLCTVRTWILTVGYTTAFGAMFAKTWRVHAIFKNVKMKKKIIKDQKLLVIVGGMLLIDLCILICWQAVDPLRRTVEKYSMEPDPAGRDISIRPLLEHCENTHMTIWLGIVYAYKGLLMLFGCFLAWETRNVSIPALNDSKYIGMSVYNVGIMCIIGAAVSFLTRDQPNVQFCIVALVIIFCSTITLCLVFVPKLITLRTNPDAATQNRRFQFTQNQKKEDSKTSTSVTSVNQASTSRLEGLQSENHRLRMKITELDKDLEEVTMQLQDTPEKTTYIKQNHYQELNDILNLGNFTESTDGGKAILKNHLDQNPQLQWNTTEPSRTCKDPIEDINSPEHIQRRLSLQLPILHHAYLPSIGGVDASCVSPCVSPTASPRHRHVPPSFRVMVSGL", "assay": "GABAB receptor agonist or partial agonist activity by binding, electrophysiology, cAMP and/or Ca2+ assay methods (Examples 83-86)", "format": "cell-based", "in_short": "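Binding: rat cortex membranes in 50 mM Tris pH 7.4 with 100 μM isoguvacine were preincubated 10 min at RT with compound, then radiolabeled CGP54626 (1-10 nM) was added; filtered and scintillation-counted. cAMP: GABAB R1a2 HEK cells, 1 h RT with 100 μM forskolin, chemiluminescence.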"}
{"molecule": "Cl.NC[C@H](CC(=O)O)c1ccc(Cl)c(OCc2ccncc2)c1", "note": "[Example 68, (3R)-4-Amino-3-[4-chloro-3-(4-pyridylmethoxy)phenyl]butanoic acid hydrochloride]", "values": [{"measurement": "GABAB receptor agonist or partial agonist activity", "value": "agonist or partial agonist activity"}]}
